In patent US8357654B2, “Multimeric CD40 ligands, method for preparing same and use thereof for preparing drugs” (Centre National de la Recherche Scientifique, priority 2004, dated 2013):
Blank lines part the entries; values can stand above or below the compound they belong to. Non-standard residues stand in square brackets, D forms with d. Residues, ends and D or L forms follow the SMILES beside them. Groups on a side chain read outwards from the residue. No end group written: not given here. *: point of attachment. Biotin = O=C1N[C@H]2[C@H](CS[C@H]2CCCCC(=O)*)N1; Ahx = NCCCCCC(=O)O

How the values were obtained:
[1] = target: T1, CD40-CD40L interaction (human CD40 muIg fusion protein, human CD154 muCD8 fusion protein) (Homo sapiens, UniProt P25942); experiment: BIAcore inhibition of the CD40-CD40L interaction; assay type: binding; details: ligand at 1 μM, CD40L at 35 nM
T1 construct: purchased ANCELL Corporation
T1 sequence (P25942 21-193 limits assumed): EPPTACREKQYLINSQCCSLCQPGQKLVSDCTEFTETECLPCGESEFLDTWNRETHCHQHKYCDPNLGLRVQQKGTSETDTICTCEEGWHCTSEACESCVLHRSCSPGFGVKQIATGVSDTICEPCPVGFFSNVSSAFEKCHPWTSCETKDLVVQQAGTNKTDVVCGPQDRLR
Source text: (§1) The BIAcore 3000 is a device which allows the study of the interactions between two molecules. Based on surface plasmon resonance, it makes it possible to carry out measurements in real time and thus to follow the interaction kinetics (association and dissociation) of an “analyte” (which is found in an injected solution) with a “ligand” (immobilized on a microchip supporting the measurement). Kinetic measurements at different concentrations of analyte make it possible to calculate the affinity constants of the interaction between the ligand and the analyte. The microchip contains four cells with different measurements, which makes it possible to directly compare a reference cell on which a non-pertinent protein (a protein which has no affinity for the analyte studied but close to the ligand) is immobilized, with the cell on which the ligand is immobilized.
(§2) The test is carried out in two stages: measurement of the direct interaction of the ligands with the CD40 immobilized on the microchip and measurement of the inhibition of the CD40-CD40L interaction by the ligands.
(§3) Rabbit antibodies directed against the constant part of mouse immunoglobulins were immobilized on a microchip. […]
In order to regenerate the cells (i.e. to remove all the proteins adsorbed in non-covalent manner), a 10 mM HCl solution is injected at 5 μL/min over 1 minute. The cells are then ready for a new analysis.

[2] = target: T2, recombinant CD40 (human CD40 muIg fusion protein) (Homo sapiens, UniProt P25942); experiment: BIAcore direct interaction of the ligands with immobilized CD40; assay type: binding; details: BIAcore 3000, kinetics of direct association to immobilized CD40, 30 μL/min over 4 minutes; read-out: dissociation constant
T2 construct: purchased ANCELL Corporation, Bayport, Minn
T2 sequence (P25942 21-193 limits assumed): as above
Source text: as §1, §2, §3
In order to regenerate the cells (i.e. to remove all the proteins adsorbed in a non-covalent manner), a 50 mM HCl solution is injected at 5 μL/min over 1 minute. The cells are then ready for a new analysis.

[3] = system: BL41 Burkitt's lymphoma cells (CD40+); experiment: Apoptosis of BL41 Burkitt's lymphoma cells, flow cytometry after DiOC6 labelling; assay type: cell-based; details: 16 hours
Description: (§4) The agonist effect of the ligands was tested by means of a simple biological test which is based on the property of certain B lymphomas of entering into apoptosis during the bridging of their membranous CD40 molecule (Tong et al., 1999). In fact, these B lymphomas enter into apoptosis during the bridging of their CD40 molecule by an anti-CD40 antibody or by soluble CD40L. The agonist ligands of CD40 will similarly induce an increase in the apoptosis of Burkitt's lymphoma cells which is measured by a precise analysis with flow cytometry.
(§5) BL41 Burkitt's or Raji (ATCC CCL-86) lymphoma cells (5.10^5/mL) two similar cell lines, are cultured in the presence of the different ligands at the desired concentrations. After 16 hours, the cells are labelled with 3,3′-dihexyloxacarbocyanine iodide (DiOC6) at 40 nM (Petit et al., 1995) in order to evaluate the percentage of apoptotic cells using flow cytometry.

[4] = system: Raji (ATCC CCL-86) lymphoma cells (CD40+); experiment: Apoptosis of Raji lymphoma cells, flow cytometry after DiOC6 labelling; assay type: cell-based
Description: as §4, §5

- inhibition of the binding of CD40L to CD40 [1]: 100%
Compound: C[C@H]1NC(=O)[C@H](CCCCNC(=O)CCCCCNC(=O)[C@H](Cc2ccc(O)cc2)NC(=O)[C@H](Cc2ccc(O)cc2)NC(=O)[C@H]2CCCN2C(=O)[C@@H](N)CCCCN)NC(=O)[C@@H](C)NC(=O)[C@H](CCCCNC(=O)CCCCCNC(=O)[C@H](Cc2ccc(O)cc2)NC(=O)[C@H](Cc2ccc(O)cc2)NC(=O)[C@H]2CCCN2C(=O)[C@@H](N)CCCCN)NC(=O)[C@@H](C)NC(=O)[C@H](CCCCNC(=O)CCCCCNC(=O)[C@H](Cc2ccc(O)cc2)NC(=O)[C@H](Cc2ccc(O)cc2)NC(=O)[C@H]2CCCN2C(=O)[C@@H](N)CCCCN)NC1=O [L40] (cyclo(K([Ahx-Tyr-Tyr-dP-Lys])[dA]K([Ahx-Tyr-Tyr-dP-Lys])[dA]K([Ahx-Tyr-Tyr-dP-Lys])[dA]))

- Kd [2]: 28 nM
Compound: C[C@H]1NC(=O)[C@H](CCCCNC(=O)CCCCCNC(=O)[C@H](Cc2ccc(O)cc2)NC(=O)[C@H](Cc2ccc(O)cc2)NC(=O)CNC(=O)[C@@H](N)CCCCN)NC(=O)[C@@H](CCCCNC(=O)CCCC[C@@H]2SC[C@@H]3NC(=O)N[C@@H]32)NC(=O)[C@H](CCCCNC(=O)CCCCCNC(=O)[C@H](Cc2ccc(O)cc2)NC(=O)[C@H](Cc2ccc(O)cc2)NC(=O)CNC(=O)[C@@H](N)CCCCN)NC(=O)[C@@H](C)NC(=O)[C@H](CCCCNC(=O)CCCCCNC(=O)[C@H](Cc2ccc(O)cc2)NC(=O)[C@H](Cc2ccc(O)cc2)NC(=O)CNC(=O)[C@@H](N)CCCCN)NC1=O [L41] (cyclo(K([Ahx-Tyr-Tyr-Gly-Lys])[dA]K([Ahx-Tyr-Tyr-Gly-Lys])[dA]K([Ahx-Tyr-Tyr-Gly-Lys])[dK](Biotin)))

Compound: H-Lys-Pro-Tyr-Tyr-Ahx-OH (H-KPYY[Ahx]-OH; SMILES NCCCC[C@H](N)C(=O)N1CCC[C@H]1C(=O)N[C@@H](Cc1ccc(O)cc1)C(=O)N[C@@H](Cc1ccc(O)cc1)C(=O)NCCCCCC(=O)O) [L45, control peptide in which D-Proline is replaced by L-Proline]
- biological activity (induction of apoptosis), in words ([3]; dose-response (FIG. 5B, 5C)): no activity

Compound: L43: compound of formula (III-a) in which Rc is Ahx-(D)Pro-Tyr-Tyr-NH—(CH2)5—CO— (peptide [Ahx][dP]YY[Ahx]; chain K[dA]K[dA]K[dA]; also: three copies of chain 1 amide-linked via C-terminal Ahx to the three Lys side-chain amines of the ring (chain 2), head-to-tail to a chain's N/C-terminus)
- inhibition of the binding of CD40L to CD40 [1]: 30%
- effectiveness in inducing apoptosis, in words ([4]; Raji cells, 16 hours, dose-response (FIG. 5D)): less effective than its homologue L4

Compound: L62: compound of formula (III-a) in which Rc is H-Lys-ψ(CH2N)-(D)Pro-Tyr-Tyr-NH—(CH2)5—CO— (peptide H-K[dP]YY[Ahx]; chain K[dA]K[dA]K[dA]; also: reduced bond psi(CH2N) between Lys1 and D-Pro2 of chain 1, three copies of chain 1 amide-linked via C-terminal Ahx to the three Lys side-chain amines of the ring (chain 2), head-to-tail to a chain's N/C-terminus)
- effectiveness and selectivity of apoptosis induction, in words ([4]; Raji and BL41 (CD40+) versus Jurkat (CD40−) cells, 16 hours (FIGS. 8A, 8B)): effective and selective ligand

Compound: C[C@H]1NC(=O)[C@H](CCCCNC(=O)CCCCCNC(=O)[C@H](Cc2ccc(O)cc2)NC(=O)[C@H](Cc2ccc(O)cc2)NC(=O)CNC(=O)[C@@H](N)CCCCN)NC(=O)[C@@H](C)NC(=O)[C@H](CCCCNC(=O)CCCCCNC(=O)[C@H](Cc2ccc(O)cc2)NC(=O)[C@H](Cc2ccc(O)cc2)NC(=O)CNC(=O)[C@@H](N)CCCCN)NC(=O)[C@@H](C)NC(=O)[C@H](CCCCNC(=O)CCCCCNC(=O)[C@H](Cc2ccc(O)cc2)NC(=O)[C@H](Cc2ccc(O)cc2)NC(=O)CNC(=O)[C@@H](N)CCCCN)NC1=O [L4] (cyclo(K([Ahx-Tyr-Tyr-Gly-Lys])[dA]K([Ahx-Tyr-Tyr-Gly-Lys])[dA]K([Ahx-Tyr-Tyr-Gly-Lys])[dA]))
- specific apoptosis ([3]; ligand at 12.5 μM, DiOC6 flow cytometry (FIG. 5C)): 24%
